From US7566713B2, “Immuno inhibitory heterocyclic compounds” (Medigene Limited, priority 2004, dated 2009)
pEC50: −log10 of the molar value.

Target: T1, CD80-CD28 interaction (Homo sapiens, UniProt P33681)
T1 sequence (P33681 35-242 limits assumed): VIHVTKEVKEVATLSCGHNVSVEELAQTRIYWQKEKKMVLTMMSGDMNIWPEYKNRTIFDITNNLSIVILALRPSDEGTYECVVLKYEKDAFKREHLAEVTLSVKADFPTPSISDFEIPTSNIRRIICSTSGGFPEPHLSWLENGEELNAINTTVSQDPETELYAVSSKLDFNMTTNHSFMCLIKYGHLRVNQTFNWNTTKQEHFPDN
Assay: cell free Homogenous Time Resolved Fluorescence (TRFret) assay, inhibition of the CD80-CD28 interaction
Format: binding
Details: HTRF assay; concentration series 100 μM-1.7 nM; 4 hours at room temperature
Experimental: The examples described above were tested in a cell free Homogenous Time Resolved Fluorescence (TRFret) assay to determine their activity as inhibitors of the CD80-CD28 interaction.
In the assay, europium and allophycocyanin (APC) are associated with CD28 and CD80 indirectly (through antibody linkers) to form a complex, which brings the europium and APC into close proximity to generate a signal. The complex comprises the following six proteins: fluorescent label 1, linker antibody 1, CD28 fusion protein, CD80 fusion protein, linker antibody 2, and fluorescent label 2. The table below describes these reagents in greater detail.
On formation of the complex, europium and APC are brought into proximity and a signal is generated.
Non-specific interaction was measured by substituting a mouse Fab fragment (C215) for the CD80 mouse Fab fragment fusion protein (1.9 μg/ml). The assay was carried out in black 384 well plates in a final volume of 30 μl. Assay buffer: 50 mM Tris-HCl, 150 mM NaCl pH7.8, containing 0.1% BSA (w/v) added just prior to use.
Compounds were added to the above reagents in a concentration series ranging between 100 μM-1.7 nM. The reaction was incubated for 4 hours at room temperature. Dual measurements were made using a Wallac Victor 1420 Multilabel Counter. First measurement: excitation 340 nm, emission 665 nm, delay 50 μs, window time 200 μs. second measurement: excitation 340 nm, emission 615 nm, delay 50 μs, window time 200 μs. Counts were automatically corrected for fluorescence crossover, quenching and background.

Compound	pEC50
O=C(O)c1ccc(-n2[nH]c3c4c(nnc3c2=O)CCCC4)cc1 [Example 1]	< 5.00
CN1C(C)(C)CC(NC(=O)c2ccc(-n3[nH]c4c5c(nnc4c3=O)CCCC5)cc2)CC1(C)C [Example 6, 4-(3-Oxo-1,3,6,7,8,9-hexahydro-pyrazolo[4,3-c]cinnolin-2-yl)-N-(1,2,2,6,6-pentamethyl-piperidin-4-yl)-benzamide]	7.03
O=C(NCC(F)F)c1ccc(-n2[nH]c3c4c(nnc3c2=O)CCCC4)cc1 [Example 3, N-(2,2-Difluoro-ethyl)-4-(3-oxo-1 ,3,6,7,8,9-hexahydro-pyrazolo[4,3-c]cinnolin-2-yl)-benzamide]	6.10
CN(C)CCCNC(=O)c1ccc(-n2[nH]c3c4c(nnc3c2=O)CCCC4)cc1 [Example 2, N-(3-Dimethylamino-propyl)-4-(3-oxo-1,3,6,7,8,9-hexahydro-pyrazolo[4,3-c]cinnolin-2-yl)-benzamide]	7.20
O=C(NCCCCN1CCCC1)c1ccc(-n2[nH]c3c4c(nnc3c2=O)CCCC4)cc1 [Example 5, 4-(3-Oxo-1,3,6,7,8,9-hexahydro-pyrazolo[4,3-c]cinnolin-2-yl)-N-(4-pyrrolidin-1-yl-butyl)-benzamide]	7.22
O=C(NCCCNC1CCCCC1)c1ccc(-n2[nH]c3c4c(nnc3c2=O)CCCC4)cc1 [Example 4, N-(3-Cyclohexylamino-propyl)-4-(3-oxo-1 ,3,6,7,8,9-hexahydro-pyrazolo[4,3-c]cinnolin-2-yl)-benzamide]	7.00
